From article PMC4111374 (Journal of Medicinal Chemistry, 2014)

What was measured:
hERG channel = hERG channel (Homo sapiens, UniProt Q12809); details: for interaction with hERG: [3H]-dofetilide binding assay; for ratio of IC50 for hERG inhibition to IC50 for inhibition of LS174T cell proliferation: human
[1] = water solubility of hydrochloride salts; type: physicochemical
[2] = cited from earlier work
[3] = test system: LS174T colon cancer cells; details: earlier report; cited from earlier work
[4] = test system: LS174T colon cancer cells; assay: LS174T cell proliferation; type: cell-based; details: for IC50: Homo sapiens, LS174T, read-out: inhibition of LS174T cell proliferation IC50, LS174T colon cancer cells, 1 to 300 nM, triplicate

Chain of hERG channel (Q12809 whole entry): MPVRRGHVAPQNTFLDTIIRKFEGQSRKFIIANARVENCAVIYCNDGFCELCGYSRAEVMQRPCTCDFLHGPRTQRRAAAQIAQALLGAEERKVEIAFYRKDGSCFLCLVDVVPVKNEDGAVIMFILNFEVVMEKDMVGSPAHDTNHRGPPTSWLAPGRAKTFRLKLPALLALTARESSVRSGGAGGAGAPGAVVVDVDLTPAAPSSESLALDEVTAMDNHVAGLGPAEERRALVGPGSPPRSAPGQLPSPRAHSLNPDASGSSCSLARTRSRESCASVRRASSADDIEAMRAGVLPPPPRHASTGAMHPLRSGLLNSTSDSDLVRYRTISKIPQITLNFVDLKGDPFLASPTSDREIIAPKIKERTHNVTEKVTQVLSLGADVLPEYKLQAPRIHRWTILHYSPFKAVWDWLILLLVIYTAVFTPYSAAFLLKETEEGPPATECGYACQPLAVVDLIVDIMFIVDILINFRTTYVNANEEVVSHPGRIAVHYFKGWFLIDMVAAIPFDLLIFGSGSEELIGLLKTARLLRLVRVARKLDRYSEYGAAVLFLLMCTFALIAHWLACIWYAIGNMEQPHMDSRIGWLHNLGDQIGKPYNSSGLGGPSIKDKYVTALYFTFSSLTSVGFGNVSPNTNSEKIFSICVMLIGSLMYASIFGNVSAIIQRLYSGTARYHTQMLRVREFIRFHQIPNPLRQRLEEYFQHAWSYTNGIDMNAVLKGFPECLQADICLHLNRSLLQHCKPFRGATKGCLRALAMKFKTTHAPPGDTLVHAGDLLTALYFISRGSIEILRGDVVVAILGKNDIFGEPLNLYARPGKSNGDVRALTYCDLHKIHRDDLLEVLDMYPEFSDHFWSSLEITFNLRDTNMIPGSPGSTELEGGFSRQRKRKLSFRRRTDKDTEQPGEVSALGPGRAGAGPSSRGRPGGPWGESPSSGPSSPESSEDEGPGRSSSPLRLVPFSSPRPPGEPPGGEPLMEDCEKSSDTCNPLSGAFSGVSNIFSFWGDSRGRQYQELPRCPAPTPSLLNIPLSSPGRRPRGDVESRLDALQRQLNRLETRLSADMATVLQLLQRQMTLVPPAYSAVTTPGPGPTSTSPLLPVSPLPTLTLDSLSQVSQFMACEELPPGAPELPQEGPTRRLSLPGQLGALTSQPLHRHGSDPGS

SMILES	interaction with hERG (hERG channel)	ratio of IC50 for hERG inhibition to IC50 for inhibition of LS174T cell proliferation (hERG channel)	further results
CNc1ccc(/C=C/c2c(F)cccc2Cl)cn1 [FIDAS 8b, (E)-5-(2′-Chloro-6′-fluorostyryl)-2-(N-methylamino)pyridine]	did not interact appreciably with hERG	5.0 × 10^3	water solubility of hydrochloride salt [1]: water-soluble
CN(C)c1ncc(/C=C/c2c(F)cccc2F)cn1 [FIDAS 10a, (E)-5-(2′,6′-Difluorostyryl)-2-(N,N-dimethylamino)pyrimidine]		0.5 × 10^3	
CN(C)c1ccc(/C=C/c2c(F)cccc2F)cc1 [FIDAS 1a, (E)-4-(2′,6′-difluorostyryl)-N,N-dimethylaniline]			half-life in vivo [2]: reasonable half-life; oral bioavailability ([2]; in vivo): good oral bioavailability; in vitro activity in LS174T cells [3]: low micromolar range
CN(C)c1ccc(/C=C/c2c(F)cccc2Cl)cc1 [FIDAS 2a]			in vitro activity relative to 3a ([4]; LS174T cells, relative to 3a): 10 fold
CNc1ccc(/C=C/c2c(F)cccc2F)cc1 [FIDAS 1b]	did not interact appreciably with hERG	6.5 × 10^3	IC50 [4]: < 10 nM; IC50 for the inhibition of LS174T cells relative to 1a ([4]; LS174T cells): 4 fold
CNc1ccc(/C=C/c2c(F)cccc2Cl)cc1 [FIDAS 2b]	did not interact appreciably with hERG	6.6 × 10^3	IC50 [4]: < 10 nM; IC50 for the inhibition of LS174T cells relative to 1a ([4]; LS174T cells): 4 fold
CN(C)c1ccc(/C=C/c2c(F)cccc2Cl)nc1 [FIDAS 5a, (E)-2-(2′-Chloro-6′-fluorostyryl)-5-(N,N-dimethylamino)pyridine]		1.0 × 10^3	
CN(C)c1ccc(/C=C/c2c(F)cccc2Cl)cn1 [FIDAS 8a, (E)-5-(2′-Chloro-6′-fluorostyryl)-2-(N,N-dimethylamino)pyridine]	did not interact appreciably with hERG	12.7 × 10^3	water solubility of hydrochloride salt [1]: water-soluble
